The record followed here is ChEMBL document CHEMBL5653631, “A Potent and Selective ULK1 Inhibitor Suppresses Autophagy and Sensitizes Cancer Cells to Nutrient Stress” (iScience, 2018).

Broadly, the inhibition is the percentage by which the read-out fell short of the control.

For assay [1], the target named is T1, Serine/threonine-protein kinase ULK3 (Homo sapiens) (UniProt Q6PHR2).
T1 sequence (whole entry): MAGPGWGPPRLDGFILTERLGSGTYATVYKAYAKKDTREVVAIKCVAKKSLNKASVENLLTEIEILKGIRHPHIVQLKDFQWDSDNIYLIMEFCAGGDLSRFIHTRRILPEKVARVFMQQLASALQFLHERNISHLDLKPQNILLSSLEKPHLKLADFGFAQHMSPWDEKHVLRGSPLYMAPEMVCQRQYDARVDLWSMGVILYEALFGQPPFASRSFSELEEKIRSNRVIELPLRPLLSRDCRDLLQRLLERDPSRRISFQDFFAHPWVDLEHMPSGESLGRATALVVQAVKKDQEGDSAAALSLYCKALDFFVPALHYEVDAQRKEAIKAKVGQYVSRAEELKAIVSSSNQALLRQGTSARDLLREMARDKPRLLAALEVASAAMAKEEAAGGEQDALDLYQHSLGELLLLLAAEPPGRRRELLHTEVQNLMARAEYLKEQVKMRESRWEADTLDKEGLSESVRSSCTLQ
The assay can be described thus: Inhibition of human recombinant ULK3 at 15 nM in presence of ATP by radiometric assay relative to control.

The target of assay [2] is Cyclin-dependent kinase 7 (Homo sapiens) (UniProt P50613). The assay can be described thus: Inhibition of human recombinant CDK7 at 15 nM related to control ULK1.
Sequence of Cyclin-dependent kinase 7 (Homo sapiens) (P50613 whole entry): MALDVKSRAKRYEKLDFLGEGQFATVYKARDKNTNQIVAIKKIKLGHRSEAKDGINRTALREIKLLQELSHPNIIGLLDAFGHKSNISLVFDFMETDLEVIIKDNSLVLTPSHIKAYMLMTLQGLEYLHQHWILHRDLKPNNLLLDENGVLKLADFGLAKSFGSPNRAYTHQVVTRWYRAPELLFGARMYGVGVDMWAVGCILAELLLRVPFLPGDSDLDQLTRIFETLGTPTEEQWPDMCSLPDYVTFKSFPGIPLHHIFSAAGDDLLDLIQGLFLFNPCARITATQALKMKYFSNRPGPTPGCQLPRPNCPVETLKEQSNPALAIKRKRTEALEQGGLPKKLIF
Assay [3] deals with Proto-oncogene tyrosine-protein kinase Src (Homo sapiens) (UniProt P12931). The assay can be described thus: Inhibition of human recombinant SRC at 40 nM related to control ULK1.
Sequence of Proto-oncogene tyrosine-protein kinase Src (Homo sapiens) (P12931 2-536 limits assumed): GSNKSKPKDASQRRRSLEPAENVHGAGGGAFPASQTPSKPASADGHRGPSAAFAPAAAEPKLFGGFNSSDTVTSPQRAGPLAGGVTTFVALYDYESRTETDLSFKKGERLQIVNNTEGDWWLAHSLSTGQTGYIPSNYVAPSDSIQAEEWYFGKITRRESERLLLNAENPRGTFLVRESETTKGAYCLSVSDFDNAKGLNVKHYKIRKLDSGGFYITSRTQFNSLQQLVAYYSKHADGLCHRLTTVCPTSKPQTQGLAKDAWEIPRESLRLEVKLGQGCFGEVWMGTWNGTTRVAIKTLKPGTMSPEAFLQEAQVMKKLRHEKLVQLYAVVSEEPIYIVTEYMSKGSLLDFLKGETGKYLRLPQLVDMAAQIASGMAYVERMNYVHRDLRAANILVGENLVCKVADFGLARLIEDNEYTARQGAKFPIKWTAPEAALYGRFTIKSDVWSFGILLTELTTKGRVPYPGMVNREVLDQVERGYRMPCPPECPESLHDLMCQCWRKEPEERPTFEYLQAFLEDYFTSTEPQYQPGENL
For assay [4], the target named is T2, Ephrin type-A receptor 1 (Homo sapiens) (UniProt P21709).
T2 sequence (whole entry): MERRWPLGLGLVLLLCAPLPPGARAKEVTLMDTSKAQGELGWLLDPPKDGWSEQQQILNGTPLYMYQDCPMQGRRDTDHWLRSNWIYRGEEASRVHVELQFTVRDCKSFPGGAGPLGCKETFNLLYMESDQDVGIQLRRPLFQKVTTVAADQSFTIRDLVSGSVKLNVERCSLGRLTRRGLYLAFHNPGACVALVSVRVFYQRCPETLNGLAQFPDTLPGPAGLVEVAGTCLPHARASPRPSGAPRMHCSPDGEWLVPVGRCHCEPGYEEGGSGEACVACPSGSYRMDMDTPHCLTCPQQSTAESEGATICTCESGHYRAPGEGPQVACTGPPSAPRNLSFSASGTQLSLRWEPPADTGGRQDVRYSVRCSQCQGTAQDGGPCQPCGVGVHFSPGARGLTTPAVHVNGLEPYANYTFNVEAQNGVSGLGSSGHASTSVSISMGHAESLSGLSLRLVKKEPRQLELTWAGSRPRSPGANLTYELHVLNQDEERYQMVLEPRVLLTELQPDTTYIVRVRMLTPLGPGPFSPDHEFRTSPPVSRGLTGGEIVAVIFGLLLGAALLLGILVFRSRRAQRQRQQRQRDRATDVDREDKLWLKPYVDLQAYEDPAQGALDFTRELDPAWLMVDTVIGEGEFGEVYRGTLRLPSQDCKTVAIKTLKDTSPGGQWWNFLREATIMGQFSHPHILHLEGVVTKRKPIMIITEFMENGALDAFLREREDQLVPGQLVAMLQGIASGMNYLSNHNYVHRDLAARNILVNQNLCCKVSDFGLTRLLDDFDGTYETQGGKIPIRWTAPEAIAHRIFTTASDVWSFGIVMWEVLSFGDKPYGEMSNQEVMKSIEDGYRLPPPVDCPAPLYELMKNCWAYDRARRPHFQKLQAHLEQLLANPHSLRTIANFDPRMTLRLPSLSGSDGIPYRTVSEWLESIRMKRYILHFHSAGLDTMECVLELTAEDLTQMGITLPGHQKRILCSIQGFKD
In words: Inhibition of human recombinant EphA1 at 40 nM in presence of ATP by radiometric assay relative to control.

Assay [5] addresses T3, Mitogen-activated protein kinase 13 (Homo sapiens) (UniProt O15264).
T3 sequence (whole entry): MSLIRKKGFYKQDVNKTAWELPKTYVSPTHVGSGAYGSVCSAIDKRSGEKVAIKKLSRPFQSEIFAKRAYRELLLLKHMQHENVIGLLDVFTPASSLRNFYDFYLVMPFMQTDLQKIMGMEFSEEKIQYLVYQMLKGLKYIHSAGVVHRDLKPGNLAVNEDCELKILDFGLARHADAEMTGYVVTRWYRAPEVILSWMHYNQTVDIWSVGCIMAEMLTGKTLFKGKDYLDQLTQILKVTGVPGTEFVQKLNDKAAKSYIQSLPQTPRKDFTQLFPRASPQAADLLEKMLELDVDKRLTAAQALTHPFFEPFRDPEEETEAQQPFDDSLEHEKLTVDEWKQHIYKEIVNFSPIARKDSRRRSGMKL
The assay can be described thus: Inhibition of human recombinant p38delta at 40 nM in presence of ATP by radiometric assay relative to control.

The target in assay [6] is Tyrosine-protein kinase JAK2 (Homo sapiens) (UniProt O60674). In words: Inhibition of human recombinant JAK2 at 40 nM related to control ULK1.
Sequence of Tyrosine-protein kinase JAK2 (Homo sapiens) (O60674 whole entry): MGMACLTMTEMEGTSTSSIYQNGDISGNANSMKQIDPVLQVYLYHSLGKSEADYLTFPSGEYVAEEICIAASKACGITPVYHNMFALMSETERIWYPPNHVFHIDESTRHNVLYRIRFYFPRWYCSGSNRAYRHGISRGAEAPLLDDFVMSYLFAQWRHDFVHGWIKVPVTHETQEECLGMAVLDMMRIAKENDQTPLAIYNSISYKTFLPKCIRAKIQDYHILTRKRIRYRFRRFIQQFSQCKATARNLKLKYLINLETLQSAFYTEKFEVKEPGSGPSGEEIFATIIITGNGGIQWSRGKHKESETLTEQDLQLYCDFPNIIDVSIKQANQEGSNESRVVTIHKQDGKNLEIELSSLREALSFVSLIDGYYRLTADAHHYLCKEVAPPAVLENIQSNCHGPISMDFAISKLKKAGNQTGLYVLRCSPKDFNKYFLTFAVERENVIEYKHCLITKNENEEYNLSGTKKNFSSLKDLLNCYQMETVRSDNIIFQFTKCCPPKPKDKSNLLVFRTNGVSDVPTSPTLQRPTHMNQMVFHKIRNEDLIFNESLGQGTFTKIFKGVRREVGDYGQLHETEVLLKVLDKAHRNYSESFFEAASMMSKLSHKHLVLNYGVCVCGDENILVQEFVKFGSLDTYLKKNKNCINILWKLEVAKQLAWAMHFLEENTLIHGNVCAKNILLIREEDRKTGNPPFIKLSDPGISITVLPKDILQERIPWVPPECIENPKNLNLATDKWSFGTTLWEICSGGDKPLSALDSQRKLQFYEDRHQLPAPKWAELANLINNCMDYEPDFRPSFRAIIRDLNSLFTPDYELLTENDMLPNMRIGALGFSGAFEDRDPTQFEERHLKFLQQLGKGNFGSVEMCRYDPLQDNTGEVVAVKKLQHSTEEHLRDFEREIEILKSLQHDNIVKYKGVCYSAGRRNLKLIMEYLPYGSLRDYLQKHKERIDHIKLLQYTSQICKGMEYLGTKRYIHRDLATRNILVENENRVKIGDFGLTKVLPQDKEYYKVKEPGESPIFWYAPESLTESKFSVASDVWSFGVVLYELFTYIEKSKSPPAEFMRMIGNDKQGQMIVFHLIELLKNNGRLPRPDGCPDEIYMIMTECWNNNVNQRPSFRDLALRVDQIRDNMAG
The target of assay [7] is Serine/threonine-protein kinase 32B (Homo sapiens) (UniProt Q9NY57). The assay can be described thus: Inhibition of human recombinant YANK2 at 500 nM in presence of ATP by radiometric assay relative to control.
Sequence of Serine/threonine-protein kinase 32B (Homo sapiens) (Q9NY57 whole entry): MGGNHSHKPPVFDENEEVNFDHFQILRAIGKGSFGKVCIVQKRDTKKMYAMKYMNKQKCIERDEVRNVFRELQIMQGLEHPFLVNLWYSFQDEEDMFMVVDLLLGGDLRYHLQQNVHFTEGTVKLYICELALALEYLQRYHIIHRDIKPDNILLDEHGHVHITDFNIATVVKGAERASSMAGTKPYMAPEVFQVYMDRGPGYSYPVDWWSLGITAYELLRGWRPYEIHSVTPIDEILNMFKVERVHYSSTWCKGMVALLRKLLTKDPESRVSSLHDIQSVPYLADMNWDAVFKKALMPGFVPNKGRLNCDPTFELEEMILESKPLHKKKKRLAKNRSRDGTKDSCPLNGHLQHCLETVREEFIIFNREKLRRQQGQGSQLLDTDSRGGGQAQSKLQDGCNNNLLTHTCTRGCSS
For assay [8], the target named is T4, TGF-beta receptor type-1 (Homo sapiens) (UniProt P36897).
T4 sequence (whole entry): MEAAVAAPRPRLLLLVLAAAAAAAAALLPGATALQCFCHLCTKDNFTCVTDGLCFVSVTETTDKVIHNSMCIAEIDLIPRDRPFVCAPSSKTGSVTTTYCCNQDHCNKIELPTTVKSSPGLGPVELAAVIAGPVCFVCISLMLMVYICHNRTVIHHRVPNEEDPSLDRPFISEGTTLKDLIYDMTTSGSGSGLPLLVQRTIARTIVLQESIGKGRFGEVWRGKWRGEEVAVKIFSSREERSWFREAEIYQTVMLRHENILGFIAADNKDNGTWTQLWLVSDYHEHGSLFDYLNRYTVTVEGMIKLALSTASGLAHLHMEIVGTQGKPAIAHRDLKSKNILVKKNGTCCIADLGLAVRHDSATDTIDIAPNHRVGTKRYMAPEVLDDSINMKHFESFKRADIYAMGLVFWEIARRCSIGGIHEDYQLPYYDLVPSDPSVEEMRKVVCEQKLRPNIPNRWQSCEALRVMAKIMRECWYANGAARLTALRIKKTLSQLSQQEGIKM
In words: Inhibition of human recombinant TGFbR1 at 500 nM related to control ULK1.

Assay [9] addresses Non-receptor tyrosine-protein kinase TYK2 (Homo sapiens) (UniProt P29597). The assay can be described thus: Inhibition of human recombinant TYK2 at 500 nM in presence of ATP by radiometric assay relative to control.
The target in assay [10] is Dual specificity protein kinase CLK4 (Homo sapiens) (UniProt Q9HAZ1). In words: Inhibition of human recombinant CLK4 at 500 nM in presence of ATP by radiometric assay relative to control.
Sequence of Dual specificity protein kinase CLK4 (Homo sapiens) (Q9HAZ1 whole entry, looked up): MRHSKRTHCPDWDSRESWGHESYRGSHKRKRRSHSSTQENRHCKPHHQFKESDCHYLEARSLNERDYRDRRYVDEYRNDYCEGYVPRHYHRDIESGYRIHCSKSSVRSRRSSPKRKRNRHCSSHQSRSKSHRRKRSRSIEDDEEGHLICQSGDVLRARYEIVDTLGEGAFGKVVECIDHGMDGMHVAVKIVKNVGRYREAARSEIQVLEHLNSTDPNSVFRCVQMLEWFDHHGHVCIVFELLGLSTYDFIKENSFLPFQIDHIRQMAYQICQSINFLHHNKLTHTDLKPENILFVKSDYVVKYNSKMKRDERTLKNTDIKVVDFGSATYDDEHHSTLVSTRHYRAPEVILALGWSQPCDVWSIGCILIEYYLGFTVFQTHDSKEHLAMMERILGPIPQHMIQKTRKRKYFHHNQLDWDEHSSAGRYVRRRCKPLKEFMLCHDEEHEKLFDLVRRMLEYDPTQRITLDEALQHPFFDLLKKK
Assay [11] deals with Tyrosine-protein kinase HCK (Homo sapiens) (UniProt P08631). In words: Inhibition of human recombinant HCK at 500 nM in presence of ATP by radiometric assay relative to control.
Sequence of Tyrosine-protein kinase HCK (Homo sapiens) (P08631 2-526 limits assumed): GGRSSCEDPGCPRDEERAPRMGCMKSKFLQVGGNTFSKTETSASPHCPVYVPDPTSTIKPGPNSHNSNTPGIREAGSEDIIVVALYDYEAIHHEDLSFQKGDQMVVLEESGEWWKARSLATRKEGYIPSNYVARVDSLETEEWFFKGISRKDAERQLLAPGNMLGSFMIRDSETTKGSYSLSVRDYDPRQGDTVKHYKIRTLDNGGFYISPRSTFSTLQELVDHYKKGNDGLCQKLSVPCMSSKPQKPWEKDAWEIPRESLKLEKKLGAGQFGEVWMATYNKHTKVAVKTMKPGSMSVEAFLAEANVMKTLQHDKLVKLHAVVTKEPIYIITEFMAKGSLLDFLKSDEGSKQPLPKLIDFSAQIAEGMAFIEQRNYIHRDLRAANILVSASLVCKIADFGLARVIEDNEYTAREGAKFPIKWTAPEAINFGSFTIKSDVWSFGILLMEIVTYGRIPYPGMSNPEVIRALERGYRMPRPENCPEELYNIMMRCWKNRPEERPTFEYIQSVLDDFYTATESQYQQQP

Sequence of Non-receptor tyrosine-protein kinase TYK2 (Homo sapiens) (P29597 whole entry): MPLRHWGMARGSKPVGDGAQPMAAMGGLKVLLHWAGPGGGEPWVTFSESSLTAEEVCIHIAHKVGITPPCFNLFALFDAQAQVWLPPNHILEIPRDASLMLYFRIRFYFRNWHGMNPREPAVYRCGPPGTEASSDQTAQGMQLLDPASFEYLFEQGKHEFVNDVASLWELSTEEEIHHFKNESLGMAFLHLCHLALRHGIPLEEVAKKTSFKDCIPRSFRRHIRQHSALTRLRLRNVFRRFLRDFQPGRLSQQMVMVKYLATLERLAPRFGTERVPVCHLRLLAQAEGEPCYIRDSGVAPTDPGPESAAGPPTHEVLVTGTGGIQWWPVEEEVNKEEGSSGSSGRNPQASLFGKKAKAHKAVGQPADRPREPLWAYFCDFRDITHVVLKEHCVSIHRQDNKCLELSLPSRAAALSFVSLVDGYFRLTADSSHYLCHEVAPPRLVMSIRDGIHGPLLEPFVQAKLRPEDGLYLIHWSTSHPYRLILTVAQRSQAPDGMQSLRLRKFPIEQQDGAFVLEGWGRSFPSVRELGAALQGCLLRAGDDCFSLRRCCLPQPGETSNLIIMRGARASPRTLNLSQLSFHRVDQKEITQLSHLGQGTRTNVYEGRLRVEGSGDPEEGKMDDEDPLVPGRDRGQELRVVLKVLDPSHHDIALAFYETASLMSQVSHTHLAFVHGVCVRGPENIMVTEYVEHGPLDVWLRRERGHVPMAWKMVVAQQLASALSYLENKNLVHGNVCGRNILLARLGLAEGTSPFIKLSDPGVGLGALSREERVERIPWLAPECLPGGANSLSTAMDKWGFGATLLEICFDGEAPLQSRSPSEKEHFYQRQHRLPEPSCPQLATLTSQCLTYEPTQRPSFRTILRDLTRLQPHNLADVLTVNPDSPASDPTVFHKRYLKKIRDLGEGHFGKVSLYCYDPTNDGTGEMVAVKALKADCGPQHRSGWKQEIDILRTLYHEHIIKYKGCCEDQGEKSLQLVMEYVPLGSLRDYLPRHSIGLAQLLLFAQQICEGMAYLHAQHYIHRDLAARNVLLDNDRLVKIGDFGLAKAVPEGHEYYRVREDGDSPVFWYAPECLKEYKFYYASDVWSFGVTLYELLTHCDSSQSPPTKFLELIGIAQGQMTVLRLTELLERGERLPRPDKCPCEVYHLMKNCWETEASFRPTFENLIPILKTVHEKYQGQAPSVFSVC

Turning to `CC(C)[C@H](NC(=O)c1cc(-c2cnn3cc(-c4ccc(OCCN5CCCCC5)cc4)cnc23)cs1)C(F)(F)F`, the inhibition in assay [1] came to 40%. Also, the fold change (FC) in assay [2] is 0.18.

For the compound `O=C(N[C@@H](C1CC1)C(F)(F)F)c1cc(-c2cnn3cc(-c4ccc(F)cc4)cnc23)cs1`, the fold change (FC) in assay [3] was 0.03; in [6] it was 0. In addition, the inhibition in [4] was 0%; in assay [5], 12%.

`CNC(=O)c1ccccc1Oc1nc(Nc2cc(OC)c(OC)c(OC)c2)ncc1Br`: the inhibition in assay [7] stood at 2%; in assay [9], 78%; in [10], 8%; in assay [11] it was 17%. Besides, the fold change (FC) in assay [8] turned out to be 0.
